From US20180011102A1, “THE PROTEIN KINASE ACTIVITY OF PHOSPHOGLYCERATE KINASE 1 AS A TARGET FOR CANCER TREATMENT AND DIAGNOSIS” (Board of Regents, The University of Texas System, priority 2015, published 2018)
Entries after “also recorded” stand apart in the source; their conditions may differ.

Key:
[1] = test system: PDH complex; details: isolated mitochondria of U87 cells with PGK1 shRNA, hypoxia 6 h
Procedure: U87 cells with or without PGK1 shRNA and with or without reconstituted expression of WT rPGK1 or rPGK1 S203A were stimulated with or without hypoxia for 6 h. Mitochondrial fractions of the cells were prepared and activity of PDH complex-mediated conversion of ^14C-labeled pyruvate into ^14C-labeled CO2 was measured. Data represent the means±SD of three independent experiments. *p<0.01.
The [1-^14C]-pyruvate conversion assay was performed as previously described (Pezzato et al., 2009) with minor modification. Briefly, ^14CO2 production through the PDH complex was measured using isolated mitochondria (1 mg) in the 1 ml mitochondria resuspension buffer (200 mM sucrose, 10 mM Hepes [pH 7.4], 5 mM malate, 2 mM monosodium phosphate, 2 mM ADP, 1 mM EGTA) containing [1-^14C]-pyruvate (0.1 μCi/ml). The incubation mixture in a 2-ml Eppendorf tube was placed at the bottom of a 20-ml scintillation vial with a foil-lined screw cap and maintained in agitation. The ^14CO2 produced during incubation was trapped by 1 ml of hyamine hydroxide at the bottom of the scintillation vial. […] Then, 19 ml of scintillator liquid was added to each scintillation vial and radioactivity was measured on a scintillation counter. The results were normalized based on mitochondrial protein levels measured by Bradford assay using bovine serum albumin as the standard.

[2] = test system: PDH; assay: Immunoblotting of hypoxia-induced PDH phosphorylation; type: cell-based, human; details: U87 and U251 cells expressing PGK1 shRNA, hypoxia 6 h
Procedure: FIGS. 5A-E. PDHK1 Phosphorylation by PGK1 Activates PDHK1. Immunoblotting analyses were performed with the indicated antibodies. FIG. 5A. Bacterially purified His-PDH with purified WT PDHK1 or PDHK1 T338A was mixed with purified WT PGK1 or PGK1 T378P. In vitro phosphorylation analyses were performed. FIG. 5B. […] FIG. 5C. U87 and U251 cells expressing PDHK1 shRNA with or without reconstituted expression of WT rPDHK1 or rPDHK1 T338A were stimulated with or without hypoxia for 6 h. FIG. 5D. […] FIG. 5E.

[3] = test system: histone H3 at Ser10; assay: Western blot of EGF-induced histone H3 S10 phosphorylation; type: cell-based, human; details: U87 cells expressing PGK1 shRNA, EGF stimulation
[4] = test system: PDHK1 T338; assay: Immunoblotting of hypoxia-induced PDHK1 T338 phosphorylation; type: cell-based, human; details: U87 and U251 cells with PGK1 shRNA, hypoxia 6 h
Procedure: FIGS. 14A-P. Mitochondrial PGK1 Phosphorylates PDHK1 at T338. FIG. 14A. […] Immunoblotting analyses were performed with the indicated antibodies. FIG. 14B. U87 cells (left panel) or U87/EGFR (right panel) cells expressing PGK1 shRNA with or without reconstituted expression of WT rPGK1 and the indicated mutants were stimulated with or without hypoxia for 6 h (left panel) or EGF (100 ng/ml) (right panel) for 6 h. These cells were incubated with [1-^14C]-pyruvate for 2 h. [1-^14C]CO2 production rates were measured. FIG. 14C. U87 cells expressing SFB-PDHK1, SFB-PDHK2, SFB-PDHK3, or SFB-PDHK4 were stimulated with or without hypoxia for 6 h. Mitochondrial fractions of these cells were prepared. SFB pull-down analyses with streptavidin-conjugated beads were performed. Immunoblotting analyses were performed with the indicated antibodies. FIG. 14D. […] Phospho-amino acid analysis of gel-isolated ^32P-phosphorylated SUMO-PDHK1 was performed. […] On the autoradiogram in the right hand panel, the green circle indicates pSer; the red circle indicates pThr; and the black circle indicates pTyr. FIG. 14E. […] FIG. 14F. […] ATP concentrations in mitoplast isolated from U87 or U251 cells treated with or without hypoxia for 6 h were measured. […] The glycolytic activities of bacterially purified WT PGK1, PGK1 T378P, PGK1 S203A, and PGK1 R39/K41A were measured. […]

Substance: PGK1 shRNA: pGIPZ PGK1 shRNA generated with GGATGTCTATGTCAATGATGC (SEQ ID NO: 4)
- hypoxia-induced suppression of conversion of pyruvate to CO2 [1]: significantly counteracted
- hypoxia-induced PDH phosphorylation [2]: blocked
- EGF-induced phosphorylation of histone H3 at Ser10 [3]: blocked; also recorded: greatly diminished
- hypoxia-induced PDHK1 T338 phosphorylation [4]: blocked
